Reference: ChEMBL document CHEMBL1201862, “PubChem BioAssay data set” (2004)
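Step 1: Grow cells in 96-well plates. Step 2: Expose to compound for 48 hours at 5 concentrations. Step 3: Interpolate endpoints linearly; if unreached, use highest concentration. The concentration for 50% growth inhibition is given as GI50.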 The source made the active and inactive calls. Rule as the data show it: active = GI50 up to about 1.1 µM and inactive = higher.

How the values were obtained:
Experiment in all cases: NCI tumour cell line growth inhibition, 48 h
SK-OV-3 = system: SK-OV-3
CCRF-CEM = system: CCRF-CEM
Malme-3M = system: Malme-3M
A549 = system: A549
SK-MEL-28 = system: SK-MEL-28
UACC-62 = system: UACC-62
SNB-19 = system: SNB-19
786-0 = system: 786-0
DU-145 = system: DU-145
SW-620 = system: SW-620
SF-295 = system: SF-295
COLO 205 = system: COLO 205
OVCAR-5 = system: OVCAR-5
SF-268 = system: SF-268
SK-MEL-5 = system: SK-MEL-5
MDA-MB-435 = system: MDA-MB-435
M14 = system: M14
EKVX = system: EKVX
SR = system: SR
SK-MEL-2 = system: SK-MEL-2
TK-10 = system: TK-10
BT-549 = system: BT-549
NCI-H226 = system: NCI-H226
RXF 393 = system: RXF 393
SF-539 = system: SF-539
LOX IMVI = system: LOX IMVI
SNB-75 = system: SNB-75
KM12 = system: KM12
K562 = system: K562
MDA-MB-231 = system: MDA-MB-231
MDA-N = system: MDA-N
UACC-257 = system: UACC-257
UO-31 = system: UO-31
OVCAR-8 = system: OVCAR-8
NCI-H23 = system: NCI-H23
A498 = system: A498
IGROV-1 = system: IGROV-1
OVCAR-3 = system: OVCAR-3
RPMI-8226 = system: RPMI-8226
U-251 = system: U-251
HOP-62 = system: HOP-62
HOP-92 = system: HOP-92
T47D = system: T47D
NCI-H460 = system: NCI-H460
HCT-15 = system: HCT-15
OVCAR-4 = system: OVCAR-4
HCT-116 = system: HCT-116
ACHN = system: ACHN
NCI/ADR-RES = system: NCI/ADR-RES
MOLT-4 = system: MOLT-4
Hs-578T = system: Hs-578T
MCF7 = system: MCF7
PC-3 = system: PC-3
SN12C = system: SN12C
HT-29 = system: HT-29
NCI-H522 = system: NCI-H522
HCC 2998 = system: HCC 2998
HL-60 = system: HL-60
CAKI-1 = system: CAKI-1

O=C(C/N=C(\CN(c1ccccc1)c1ccccc1)Oc1ccc(Cl)cc1Cl)n1ccnc1
GI50 (SK-OV-3): > 100 µM (inactive) | GI50 (CCRF-CEM): > 100 µM (inactive) | GI50 (Malme-3M): > 100 µM (inactive) | GI50 (A549): > 100 µM (inactive) | GI50 (SK-MEL-28): > 100 µM (inactive) | GI50 (UACC-62): > 100 µM (inactive) | GI50 (SNB-19): > 100 µM (inactive) | GI50 (786-0): > 100 µM (inactive) | GI50 (DU-145): > 100 µM (inactive) | GI50 (SW-620): > 100 µM (inactive) | GI50 (SF-295): > 100 µM (inactive) | GI50 (COLO 205): > 100 µM (inactive) | GI50 (OVCAR-5): > 100 µM (inactive) | GI50 (SF-268): > 100 µM (inactive) | GI50 (SK-MEL-5): > 100 µM (inactive) | GI50 (MDA-MB-435): > 100 µM (inactive) | GI50 (M14): > 100 µM (inactive) | GI50 (EKVX): > 100 µM (inactive) | GI50 (SR): > 100 µM (inactive) | GI50 (SK-MEL-2): > 100 µM (inactive) | GI50 (TK-10): > 100 µM (inactive) | GI50 (BT-549): > 100 µM (inactive) | GI50 (NCI-H226): > 100 µM (inactive) | GI50 (RXF 393): > 100 µM (inactive) | GI50 (SF-539): > 100 µM (inactive) | GI50 (LOX IMVI): > 100 µM (inactive) | GI50 (SNB-75): > 100 µM (inactive) | GI50 (KM12): > 100 µM (inactive) | GI50 (K562): > 100 µM (inactive) | GI50 (MDA-MB-231): > 100 µM (inactive) | GI50 (MDA-N): > 100 µM (inactive) | GI50 (UACC-257): > 100 µM (inactive) | GI50 (UO-31): > 100 µM (inactive) | GI50 (OVCAR-8): > 100 µM (inactive) | GI50 (NCI-H23): > 100 µM (inactive) | GI50 (A498): > 100 µM (inactive) | GI50 (IGROV-1): > 100 µM (inactive) | GI50 (OVCAR-3): > 100 µM (inactive) | GI50 (RPMI-8226): > 100 µM (inactive) | GI50 (U-251): > 100 µM (inactive) | GI50 (HOP-62): > 100 µM (inactive) | GI50 (HOP-92): 63 µM (inactive) | GI50 (T47D): > 100 µM (inactive) | GI50 (NCI-H460): > 100 µM (inactive) | GI50 (HCT-15): > 100 µM | GI50 (OVCAR-4): > 100 µM (inactive) | GI50 (HCT-116): > 100 µM (inactive) | GI50 (ACHN): > 100 µM (inactive) | GI50 (NCI/ADR-RES): > 100 µM (inactive) | GI50 (MOLT-4): > 100 µM (inactive) | GI50 (Hs-578T): > 100 µM (inactive) | GI50 (MCF7): > 100 µM (inactive) | GI50 (PC-3): > 100 µM (inactive) | GI50 (SN12C): > 100 µM (inactive) | GI50 (HT-29): > 100 µM (inactive)

CC(/C=C/c1ccccc1)=N\NC(=S)N/N=C(C)/C=C/c1ccccc1
GI50 (SK-OV-3): 13.3 µM (inactive) | GI50 (CCRF-CEM): 6.38 µM (inactive) | GI50 (Malme-3M): 10 µM (inactive) | GI50 (NCI-H522): 25.3 µM (inactive) | GI50 (A549): 17.9 µM (inactive) | GI50 (SK-MEL-28): 15.4 µM (inactive) | GI50 (UACC-62): 26.2 µM (inactive) | GI50 (SNB-19): 23.2 µM (inactive) | GI50 (786-0): 11 µM (inactive) | GI50 (DU-145): 31.2 µM (inactive) | GI50 (SW-620): 15.8 µM (inactive) | GI50 (SF-295): 20.7 µM (inactive) | GI50 (COLO 205): 19 µM (inactive) | GI50 (OVCAR-5): 28.5 µM (inactive) | GI50 (SF-268): 4.22 µM (inactive) | GI50 (SK-MEL-5): 13.8 µM (inactive) | GI50 (MDA-MB-435): 15.5 µM (inactive) | GI50 (M14): 17.2 µM (inactive) | GI50 (EKVX): 47.6 µM (inactive) | GI50 (SR): 5.93 µM (inactive) | GI50 (SK-MEL-2): 10.9 µM (inactive) | GI50 (TK-10): 20.5 µM (inactive) | GI50 (BT-549): 24.5 µM (inactive) | GI50 (NCI-H226): 21 µM (inactive) | GI50 (RXF 393): 13.7 µM (inactive) | GI50 (HCC 2998): 20.9 µM (inactive) | GI50 (SF-539): 21.1 µM (inactive) | GI50 (LOX IMVI): 11 µM (inactive) | GI50 (SNB-75): 22.5 µM (inactive) | GI50 (K562): 4.86 µM (inactive) | GI50 (MDA-MB-231): 12.8 µM (inactive) | GI50 (MDA-N): 25.5 µM (inactive) | GI50 (UACC-257): 20.8 µM (inactive) | GI50 (UO-31): 4.33 µM (inactive) | GI50 (OVCAR-8): 17.5 µM (inactive) | GI50 (NCI-H23): 23.7 µM (inactive) | GI50 (A498): 1.24 µM (inactive) | GI50 (IGROV-1): 13.4 µM (inactive) | GI50 (OVCAR-3): 5.64 µM (inactive) | GI50 (U-251): 4.59 µM (inactive) | GI50 (HOP-62): 28.1 µM (inactive) | GI50 (T47D): 13.9 µM (inactive) | GI50 (NCI-H460): 5.11 µM (inactive) | GI50 (HCT-15): 12.7 µM | GI50 (OVCAR-4): 5.4 µM (inactive) | GI50 (HCT-116): 4.03 µM (inactive) | GI50 (ACHN): 23.6 µM (inactive) | GI50 (NCI/ADR-RES): 16.1 µM (inactive) | GI50 (HL-60): 8.67 µM (inactive) | GI50 (MOLT-4): 5.93 µM (inactive) | GI50 (Hs-578T): > 100 µM (inactive) | GI50 (MCF7): 6.46 µM (inactive) | GI50 (PC-3): 23.9 µM (inactive) | GI50 (SN12C): 34.4 µM (inactive) | GI50 (HT-29): 8.69 µM (inactive)

O=C(O)CCC(NC(=O)/C(=C/c1ccccc1)NC(=O)c1ccccc1)C(=O)O (configuration not stated)
GI50 (SK-OV-3): > 100 µM (inactive) | GI50 (CCRF-CEM): > 100 µM (inactive) | GI50 (Malme-3M): > 100 µM (inactive) | GI50 (NCI-H522): > 100 µM (inactive) | GI50 (A549): > 100 µM (inactive) | GI50 (SK-MEL-28): > 100 µM (inactive) | GI50 (UACC-62): > 100 µM (inactive) | GI50 (SNB-19): > 100 µM (inactive) | GI50 (786-0): > 100 µM (inactive) | GI50 (DU-145): > 100 µM (inactive) | GI50 (SW-620): > 100 µM (inactive) | GI50 (SF-295): > 100 µM (inactive) | GI50 (COLO 205): > 100 µM (inactive) | GI50 (OVCAR-5): > 100 µM (inactive) | GI50 (SF-268): > 100 µM (inactive) | GI50 (SK-MEL-5): > 100 µM (inactive) | GI50 (MDA-MB-435): > 100 µM (inactive) | GI50 (M14): > 100 µM (inactive) | GI50 (EKVX): > 100 µM (inactive) | GI50 (SK-MEL-2): > 100 µM (inactive) | GI50 (CAKI-1): > 100 µM (inactive) | GI50 (TK-10): > 100 µM (inactive) | GI50 (BT-549): > 100 µM (inactive) | GI50 (NCI-H226): > 100 µM (inactive) | GI50 (RXF 393): > 100 µM (inactive) | GI50 (HCC 2998): > 100 µM (inactive) | GI50 (SF-539): > 100 µM (inactive) | GI50 (LOX IMVI): > 100 µM (inactive) | GI50 (SNB-75): > 100 µM (inactive) | GI50 (KM12): > 100 µM (inactive) | GI50 (K562): > 100 µM (inactive) | GI50 (MDA-MB-231): > 100 µM (inactive) | GI50 (MDA-N): > 100 µM (inactive) | GI50 (UACC-257): > 100 µM (inactive) | GI50 (UO-31): > 100 µM (inactive) | GI50 (OVCAR-8): > 100 µM (inactive) | GI50 (NCI-H23): > 100 µM (inactive) | GI50 (A498): > 100 µM (inactive) | GI50 (IGROV-1): > 100 µM (inactive) | GI50 (OVCAR-3): > 100 µM (inactive) | GI50 (RPMI-8226): > 100 µM (inactive) | GI50 (HOP-62): > 100 µM (inactive) | GI50 (HOP-92): > 100 µM (inactive) | GI50 (T47D): > 100 µM (inactive) | GI50 (NCI-H460): > 100 µM (inactive) | GI50 (HCT-15): > 100 µM | GI50 (OVCAR-4): > 100 µM (inactive) | GI50 (HCT-116): > 100 µM (inactive) | GI50 (ACHN): > 100 µM (inactive) | GI50 (NCI/ADR-RES): > 100 µM (inactive) | GI50 (HL-60): > 100 µM (inactive) | GI50 (MOLT-4): > 100 µM (inactive) | GI50 (Hs-578T): > 100 µM (inactive) | GI50 (MCF7): > 100 µM (inactive) | GI50 (PC-3): > 100 µM (inactive) | GI50 (SN12C): > 100 µM (inactive) | GI50 (HT-29): > 100 µM (inactive)
